Article PMC7473865, “Repertoire-scale determination of class II MHC peptide binding via yeast display improves antigen prediction” (Nature Communications, 2020)

Target: yeast-displayed HLA-DR401 (Homo sapiens, UniProt P01903+P01911, A100K/A169T/D72E/F76Y/I96L/K127E/L162R/M171V/M61L/P40V/Q125Y/R42H/S133A/S149N/S66Y/V115G/V157M/V209L/W38E)
Experiment: Yeast-display randomized peptide library selection and deep sequencing, HLA-DR401
Assay type: binding
Design: key: 1=binder; 0=non-binder
[1] = SuppFig8C, yeast-display library peptides

yeast-displayed HLA-DR401, sequence (P01903 26-216 M61L/V157M limits assumed): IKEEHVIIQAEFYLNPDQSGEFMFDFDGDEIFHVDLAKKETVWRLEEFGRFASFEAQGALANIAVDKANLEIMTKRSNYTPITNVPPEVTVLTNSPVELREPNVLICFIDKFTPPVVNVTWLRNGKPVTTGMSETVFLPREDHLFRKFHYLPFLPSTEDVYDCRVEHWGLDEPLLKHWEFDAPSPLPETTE
yeast-displayed HLA-DR401, sequence (P01911 30-227 with the stated changes limits assumed): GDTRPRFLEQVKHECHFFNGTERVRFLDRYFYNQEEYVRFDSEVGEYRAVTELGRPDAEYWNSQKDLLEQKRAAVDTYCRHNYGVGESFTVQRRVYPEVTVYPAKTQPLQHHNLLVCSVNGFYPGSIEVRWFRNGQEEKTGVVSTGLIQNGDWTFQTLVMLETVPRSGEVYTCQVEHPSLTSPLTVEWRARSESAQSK

label (1=binder, 0=non-binder) (Fig6B data set)	label (1=binder, 0=non-binder) [1]	Sequence
0	0	AAADARCSNRSDLMGGSGGG
0		AAAKYRLHVKSGWSGGSGGG
0	0	AAALSTSWLFCSRCGGSGGG
0	0	AAAMQRRNPALLLFGGSGGG

The remaining lines, values behind:

Sequence	label (1=binder, 0=non-binder) (Fig6B data set)	label (1=binder, 0=non-binder) [1]
AAANWSSSPDMPLVGGSGGG	0	0
AAARGALTTQLLAIGGSGGG		0
